Test results as given in the supplement of paper PMC10307832.

Experiments:
Experiment in all cases: relative viability (nuclei count vs DMSO), 5 days (fraction); higher = more cells survive
NCI-H1734 = system: NCI-H1734
Procedure, shortened: (§1)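 Each reported value is a median over duplicate plates. It expresses relative viability: treated-well nuclei count divided by vehicle-well nuclei count. Lung cancer cell lines in 1536-well plates were dosed by pin tool a day after seeding, alone with one drug or with a fixed anchor-drug dose plus five library-drug doses (not always all listed) in √10 steps, and nuclei were counted after 5 days.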

201T = system: 201T
Procedure, shortened: as §1

RERF-LC-KJ = system: RERF-LC-KJ
Procedure, shortened: as §1

PC-14 = system: PC-14
Procedure, shortened: as §1

HCC-44 = system: HCC-44
Procedure, shortened: as §1

NCI-H1993 = system: NCI-H1993
Procedure, shortened: as §1

NCI-H441 = system: NCI-H441
Procedure, shortened: as §1

EPLC-272H = system: EPLC-272H
Procedure, shortened: as §1

NCI-H2170 = system: NCI-H2170
Procedure, shortened: as §1

NCI-H520 = system: NCI-H520
Procedure, shortened: as §1

H3255 = system: H3255
Procedure, shortened: as §1

NCI-H1793 = system: NCI-H1793
Procedure, shortened: as §1

NCI-H2347 = system: NCI-H2347
Procedure, shortened: as §1

NCI-H3122 = system: NCI-H3122
Procedure, shortened: as §1

NCI-H2085 = system: NCI-H2085
Procedure, shortened: as §1

LOU-NH91 = system: LOU-NH91
Procedure, shortened: as §1

NCI-H2405 = system: NCI-H2405
Procedure, shortened: as §1

NCI-H647 = system: NCI-H647
Procedure, shortened: as §1

NCI-H2023 = system: NCI-H2023
Procedure, shortened: as §1

COR-L23 = system: COR-L23
Procedure, shortened: as §1

NCI-H1563 = system: NCI-H1563
Procedure, shortened: as §1

**Q.** How did the relative viability (NCI-H1734; first compound 0.01 µM) turn out when NC(=O)Nc1cc(-c2cccc(F)c2)sc1C(=O)N[C@H]1CCCNC1 [AZD7762] + Cc1nc(NC(=O)N2CCC[C@H]2C(N)=O)sc1-c1ccnc(C(C)(C)C(F)(F)F)c1 [Alpelisib] (partner 2 µM) was run?
**A.** 0.729

**Q.** And the relative viability (NCI-H1734; first compound 0.03162 µM)?
**A.** 0.782

**Q.** And the relative viability (NCI-H1734; first compound 0.1 µM)?
**A.** 0.775

**Q.** What about the relative viability (NCI-H1734; first compound 0.3162 µM) of the same compound?
**A.** 0.753

**Q.** And the relative viability (NCI-H1734; first compound 1 µM)?
**A.** 0.646

**Q.** What about the relative viability (201T; first compound 0.01 µM) of the same compound?
**A.** 1.01

**Q.** What about the relative viability (201T; first compound 0.03162 µM) of the same compound?
**A.** 1.05

**Q.** What about the relative viability (201T; first compound 0.1 µM) of the same compound?
**A.** 1.02

**Q.** And the relative viability (201T; first compound 0.3162 µM)?
**A.** 1.08

**Q.** What about the relative viability (201T; first compound 1 µM) of the same compound?
**A.** 1.11

**Q.** What about the relative viability (RERF-LC-KJ; first compound 0.01 µM) of the same compound?
**A.** 0.792

**Q.** What about the relative viability (RERF-LC-KJ; first compound 0.03162 µM) of the same compound?
**A.** 0.773

**Q.** And the relative viability (RERF-LC-KJ; first compound 0.1 µM)?
**A.** 0.787

**Q.** What about the relative viability (RERF-LC-KJ; first compound 0.3162 µM) of the same compound?
**A.** 0.924

**Q.** What about the relative viability (RERF-LC-KJ; first compound 1 µM) of the same compound?
**A.** 0.914

**Q.** What about the relative viability (PC-14; first compound 0.01 µM) of the same compound?
**A.** 0.894

**Q.** And the relative viability (PC-14; first compound 0.03162 µM)?
**A.** 0.953

**Q.** What about the relative viability (PC-14; first compound 0.1 µM) of the same compound?
**A.** 0.922

**Q.** And the relative viability (PC-14; first compound 0.3162 µM)?
**A.** 0.919

**Q.** And the relative viability (PC-14; first compound 1 µM)?
**A.** 0.392

**Q.** What about the relative viability (HCC-44; first compound 0.01 µM) of the same compound?
**A.** 0.818

**Q.** What about the relative viability (HCC-44; first compound 0.03162 µM) of the same compound?
**A.** 0.751

**Q.** What about the relative viability (HCC-44; first compound 0.1 µM) of the same compound?
**A.** 0.831

**Q.** What about the relative viability (HCC-44; first compound 0.3162 µM) of the same compound?
**A.** 0.755

**Q.** What about the relative viability (HCC-44; first compound 1 µM) of the same compound?
**A.** 0.952

**Q.** And the relative viability (NCI-H1993; first compound 0.01 µM)?
**A.** 0.671

**Q.** What about the relative viability (NCI-H1993; first compound 0.03162 µM) of the same compound?
**A.** 0.708

**Q.** What about the relative viability (NCI-H1993; first compound 0.1 µM) of the same compound?
**A.** 0.651

**Q.** And the relative viability (NCI-H1993; first compound 0.3162 µM)?
**A.** 0.673

**Q.** What about the relative viability (NCI-H1993; first compound 1 µM) of the same compound?
**A.** 0.753

**Q.** And the relative viability (NCI-H441; first compound 0.01 µM)?
**A.** 1.17

**Q.** What about the relative viability (NCI-H441; first compound 0.03162 µM) of the same compound?
**A.** 0.831

**Q.** What about the relative viability (NCI-H441; first compound 0.1 µM) of the same compound?
**A.** 1.2

**Q.** What about the relative viability (NCI-H441; first compound 0.3162 µM) of the same compound?
**A.** 1.01

**Q.** What about the relative viability (NCI-H441; first compound 1 µM) of the same compound?
**A.** 1.09

**Q.** What about the relative viability (EPLC-272H; first compound 0.01 µM) of the same compound?
**A.** 1.07

**Q.** What about the relative viability (EPLC-272H; first compound 0.03162 µM) of the same compound?
**A.** 1.1

**Q.** What about the relative viability (EPLC-272H; first compound 0.1 µM) of the same compound?
**A.** 1.13

**Q.** What about the relative viability (EPLC-272H; first compound 0.3162 µM) of the same compound?
**A.** 0.992

**Q.** And the relative viability (EPLC-272H; first compound 1 µM)?
**A.** 0.674

**Q.** What about the relative viability (NCI-H2170; first compound 0.01 µM) of the same compound?
**A.** 0.843

**Q.** And the relative viability (NCI-H2170; first compound 0.03162 µM)?
**A.** 0.75

**Q.** What about the relative viability (NCI-H2170; first compound 0.1 µM) of the same compound?
**A.** 0.727

**Q.** And the relative viability (NCI-H2170; first compound 0.3162 µM)?
**A.** 0.797

**Q.** What about the relative viability (NCI-H2170; first compound 1 µM) of the same compound?
**A.** 0.776

**Q.** What about the relative viability (NCI-H520; first compound 0.01 µM) of the same compound?
**A.** 1.05

**Q.** And the relative viability (NCI-H520; first compound 0.03162 µM)?
**A.** 1.04

**Q.** And the relative viability (NCI-H520; first compound 0.1 µM)?
**A.** 0.832

**Q.** What about the relative viability (NCI-H520; first compound 0.3162 µM) of the same compound?
**A.** 0.635

**Q.** What about the relative viability (NCI-H520; first compound 1 µM) of the same compound?
**A.** 0.371

**Q.** And the relative viability (H3255; first compound 0.01 µM)?
**A.** 0.727

**Q.** And the relative viability (H3255; first compound 0.03162 µM)?
**A.** 0.63

**Q.** What about the relative viability (H3255; first compound 0.1 µM) of the same compound?
**A.** 0.634

**Q.** What about the relative viability (H3255; first compound 0.3162 µM) of the same compound?
**A.** 0.705

**Q.** And the relative viability (H3255; first compound 1 µM)?
**A.** 0.357

**Q.** What about the relative viability (NCI-H1793; first compound 0.01 µM) of the same compound?
**A.** 0.835

**Q.** And the relative viability (NCI-H1793; first compound 0.03162 µM)?
**A.** 0.795

**Q.** What about the relative viability (NCI-H1793; first compound 0.1 µM) of the same compound?
**A.** 0.627

**Q.** And the relative viability (NCI-H1793; first compound 0.3162 µM)?
**A.** 0.854

**Q.** And the relative viability (NCI-H1793; first compound 1 µM)?
**A.** 0.524

**Q.** What about the relative viability (NCI-H2347; first compound 0.01 µM) of the same compound?
**A.** 1.07

**Q.** And the relative viability (NCI-H2347; first compound 0.03162 µM)?
**A.** 0.993

**Q.** What about the relative viability (NCI-H2347; first compound 0.1 µM) of the same compound?
**A.** 1.11

**Q.** And the relative viability (NCI-H2347; first compound 0.3162 µM)?
**A.** 1.26

**Q.** And the relative viability (NCI-H2347; first compound 1 µM)?
**A.** 1.01

**Q.** What about the relative viability (NCI-H3122; first compound 0.01 µM) of the same compound?
**A.** 0.768

**Q.** And the relative viability (NCI-H3122; first compound 0.03162 µM)?
**A.** 0.866

**Q.** What about the relative viability (NCI-H3122; first compound 0.1 µM) of the same compound?
**A.** 0.737

**Q.** And the relative viability (NCI-H3122; first compound 0.3162 µM)?
**A.** 0.748

**Q.** What about the relative viability (NCI-H3122; first compound 1 µM) of the same compound?
**A.** 0.758

**Q.** What about the relative viability (NCI-H2085; first compound 0.01 µM) of the same compound?
**A.** 1.06

**Q.** And the relative viability (NCI-H2085; first compound 0.03162 µM)?
**A.** 0.928

**Q.** And the relative viability (NCI-H2085; first compound 0.1 µM)?
**A.** 1.1

**Q.** What about the relative viability (NCI-H2085; first compound 0.3162 µM) of the same compound?
**A.** 1.06

**Q.** What about the relative viability (NCI-H2085; first compound 1 µM) of the same compound?
**A.** 0.782

**Q.** What about the relative viability (LOU-NH91; first compound 0.01 µM) of the same compound?
**A.** 0.731

**Q.** What about the relative viability (LOU-NH91; first compound 0.03162 µM) of the same compound?
**A.** 0.741

**Q.** And the relative viability (LOU-NH91; first compound 0.1 µM)?
**A.** 0.645

**Q.** What about the relative viability (LOU-NH91; first compound 0.3162 µM) of the same compound?
**A.** 0.612

**Q.** What about the relative viability (LOU-NH91; first compound 1 µM) of the same compound?
**A.** 0.478

**Q.** And the relative viability (NCI-H2405; first compound 0.01 µM)?
**A.** 0.808

**Q.** What about the relative viability (NCI-H2405; first compound 0.03162 µM) of the same compound?
**A.** 0.79

**Q.** What about the relative viability (NCI-H2405; first compound 0.1 µM) of the same compound?
**A.** 0.671

**Q.** And the relative viability (NCI-H2405; first compound 0.3162 µM)?
**A.** 0.445

**Q.** What about the relative viability (NCI-H2405; first compound 1 µM) of the same compound?
**A.** 0.27

**Q.** What about the relative viability (NCI-H647; first compound 0.01 µM) of the same compound?
**A.** 1.28

**Q.** And the relative viability (NCI-H647; first compound 0.03162 µM)?
**A.** 1.02

**Q.** And the relative viability (NCI-H647; first compound 0.1 µM)?
**A.** 1.04

**Q.** And the relative viability (NCI-H647; first compound 0.3162 µM)?
**A.** 0.61

**Q.** And the relative viability (NCI-H647; first compound 1 µM)?
**A.** 0.104

**Q.** And the relative viability (NCI-H2023; first compound 0.01 µM)?
**A.** 0.651

**Q.** And the relative viability (NCI-H2023; first compound 0.03162 µM)?
**A.** 0.608

**Q.** What about the relative viability (NCI-H2023; first compound 0.1 µM) of the same compound?
**A.** 0.436

**Q.** What about the relative viability (NCI-H2023; first compound 0.3162 µM) of the same compound?
**A.** 0.328

**Q.** What about the relative viability (NCI-H2023; first compound 1 µM) of the same compound?
**A.** 0.108

**Q.** What about the relative viability (COR-L23; first compound 0.01 µM) of the same compound?
**A.** 0.938

**Q.** What about the relative viability (COR-L23; first compound 0.03162 µM) of the same compound?
**A.** 0.895

**Q.** What about the relative viability (COR-L23; first compound 0.1 µM) of the same compound?
**A.** 0.797

**Q.** What about the relative viability (COR-L23; first compound 0.3162 µM) of the same compound?
**A.** 0.621

**Q.** And the relative viability (COR-L23; first compound 1 µM)?
**A.** 0.162

**Q.** And the relative viability (NCI-H1563; first compound 0.01 µM)?
**A.** 1.01

**Q.** What about the relative viability (NCI-H1563; first compound 0.03162 µM) of the same compound?
**A.** 0.918

**Q.** What about the relative viability (NCI-H1563; first compound 0.1 µM) of the same compound?
**A.** 0.978

**Q.** What about the relative viability (NCI-H1563; first compound 0.3162 µM) of the same compound?
**A.** 0.943

**Q.** What about the relative viability (NCI-H1563; first compound 1 µM) of the same compound?
**A.** 0.76
